# Legend:
# Type in all cases: in vivo
# [1] = tested on: Viola tricolor; assay: Pre-emergence herbicidal action
# Text: (§1) Seeds or rhizome pieces of mono- and dicotyledonous harmful plants are placed in sandy loam in pots of a diameter of 9 to 13 cm and covered with soil. The herbicides, formulated as emulsifiable concentrates or dusts, are applied to the surface of the covering soil in the form of aqueous dispersions or suspensions or emulsions at an application rate of 300 to 800 l of water/ha (converted), […] For further cultivation of the plants, the pots are then kept in a greenhouse under optimum conditions. The visual scoring of the damage to the harmful plants is carried out 3-4 weeks after the treatment. Here, the compounds of Nos. 1-3, 1-15, 1-44 and 1-1407 show an activity of at least 90% against Echinochloa crus galli. The compounds of Nos. 1-15, 1-45, 1-1407 and 1-1419 show an activity of at least 90% against Abutilon theophrasti. The compounds of Nos. 1-3, 1-45, 1-1406 and 1-1418 show an activity of at least 90% against Amaranthus retroflexus. The compounds of Nos. 1-44, 1-1406, 1-1407 and 1-1419 show an activity of at least 90% against Stellaria media.
# (§2) The comparative tests of Tables 1 to 24 below show the superiority of the compounds according to the invention over the compounds known from the prior art.
# (§3) • ABUTH Abutilon theophrasti ALOMY Alopecurus myosuroides • AMARE Amaranthus retroflexus AVEFA Avena fatua • CHEAL Chenopodium album ECHCG Echinochloa crus galli • GALAP Galium aparine LOLMU Lolium multiflorum • MATIN Matricaria inodora PHBPU Pharbitis purpureum • POLCO Fallopia convolvulus STEME Stellaria media • VERPE Veronica persica VIOTR Viola tricolor • XANST Xanthium strumarium Crop Plants • GLXMA Glycine max (soybeans) TRZAS Triticum aestivum (wheat) • ZEAMX Zea mays (corn)
# [2] = tested on: Fallopia convolvulus; assay: Post-emergence herbicidal action; conditions: 80 g of a.i./ha
# Protocol: (§4) Seeds of mono- and dicotyledonous harmful plants are placed in sandy loam in cardboard pots, covered with soil and grown in the greenhouse under good growth conditions. Two to three weeks after sowing, the test plants are treated at the three-leaf stage. The compounds according to the invention, which are formulated as wettable powders or as emulsion concentrates, are sprayed at an application rate of 600 to 800 l of water/ha (converted) in a dosage of 80 grams per hectare onto the surface of the green plant parts. The visual scoring of the damage to the harmful plants is carried out 3-4 weeks after the treatment. Here, the compounds of Nos. 1-39, 1-40, 1-1382 and 1-2091 show an activity of at least 90% against Echinochloa crus galli. The compounds of Nos. 1-3, 1-44 and 1-2091 shown an activity of at least 90% against Abutilon theophrasti. The compounds of Nos. 1-39, 1-40 and 1-1382 show an activity of at least 90% against Veronica persica. The compounds of Nos. 1-3, 1-38, 1-39, 1-1406 and 1-1407 show an activity of at least 90% against Stellaria media.
# as §2, §3
# [3] = tested on: Pharbitis purpureum; assay: Post-emergence herbicidal action; conditions: 80 g of a.i./ha
# Protocol: as §4, §2, §3
# [4] = tested on: Viola tricolor; assay: Post-emergence herbicidal action; conditions: 80 g of a.i./ha, read-out: Herbicidal activity in % against VIOTR
# Protocol: as §4, §2, §3
# [5] = tested on: Veronica persica; assay: Pre-emergence herbicidal action; conditions: 80 g of a.i./ha
# Text: as §1, §2, §3
# [6] = tested on: Stellaria media; assay: Pre-emergence herbicidal action; conditions: 80 g of a.i./ha
# Text: as §1, §2, §3
# [7] = tested on: Matricaria inodora; assay: Pre-emergence herbicidal action; conditions: Tripleurospermum inodorum, read-out: Herbicidal activity in % against MATIN; for pest or weed control at 80 g/ha: 80 g of a.i./ha; for pest or weed control at 320 g/ha: 320 g of a.i./ha
# Text: (§5) Seeds or rhizome pieces of mono- and dicotyledonous harmful plants are placed in sandy loam in pots of a diameter of 9 to 13 cm and covered with soil. The herbicides, formulated as emulsifiable concentrates or dusts, are applied to the surface of the covering soil in the form of aqueous dispersions or suspensions or emulsions at an application rate of 300 to 800 l of water/ha (converted), at a dosage of 320 grams per hectare. For further cultivation of the plants, the pots are then kept in a greenhouse under optimum conditions. The visual scoring of the damage to the harmful plants is carried out 3-4 weeks after the treatment. Here, the compounds of Nos. 1-3, 1-15, 1-44 and 1-1407 show an activity of at least 90% against Echinochloa crus galli. The compounds of Nos. 1-15, 1-45, 1-1407 and 1-1419 show an activity of at least 90% against Abutilon theophrasti. The compounds of Nos. 1-3, 1-45, 1-1406 and 1-1418 show an activity of at least 90% against Amaranthus retroflexus. The compounds of Nos. 1-44, 1-1406, 1-1407 and 1-1419 show an activity of at least 90% against Stellaria media.
# as §2, §3
# [8] = tested on: Galium aparine; assay: Post-emergence herbicidal action; conditions: 80 g of a.i./ha
# Protocol: as §4, with “The compounds according to the invention, which are formulated as wettable powders or as emulsion concentrates, are sprayed at an application rate of 600 to 800 l of water/ha (converted) in a dosage of 80 grams per hectare onto the surface of the green plant parts.” left out
# as §2, §3
# [9] = tested on: Veronica persica; assay: Post-emergence herbicidal action; conditions: 80 g of a.i./ha, visual scoring 3-4 weeks after treatment, read-out: Herbicidal activity in % against VERPE
# Protocol: as §4, §2, §3
# [10] = tested on: Xanthium strumarium; assay: Post-emergence herbicidal action; conditions: 80 g of a.i./ha, read-out: Herbicidal activity in % against XANST
# Protocol: as §4, §2, §3
# [11] = tested on: Stellaria media; assay: Post-emergence herbicidal action; conditions: Stellaria media, 80 g of a.i./ha, visual scoring 3-4 weeks after treatment, read-out: Herbicidal activity in % against STEME
# Protocol: as §4, §2, §3
# [12] = tested on: Matricaria inodora; assay: Post-emergence herbicidal action; conditions: Tripleurospermum inodorum, 80 g of a.i./ha, read-out: Herbicidal activity in % against MATIN
# Protocol: as §4, §2, §3
# [13] = tested on: Fallopia convolvulus; assay: Pre-emergence herbicidal action; conditions: 320 g of a.i./ha
# Text: as §5, §2, §3
# [14] = tested on: Pharbitis purpureum; assay: Pre-emergence herbicidal action; conditions: 320 g of a.i./ha
# Text: as §5, §2, §3
# [15] = tested on: Xanthium strumarium; assay: Pre-emergence herbicidal action; conditions: 320 g of a.i./ha
# Text: as §5, §2, §3
# [16] = tested on: Triticum aestivum (wheat); assay: Post-emergence damage of crop plants; conditions: 80 g of a.i./ha, crop plant wheat
# Protocol: as §4, with “The compounds according to the invention, which are formulated as wettable powders or as emulsion concentrates, are sprayed at an application rate of 600 to 800 l of water/ha (converted) in a dosage of 80 grams per hectare onto the surface of the green plant parts.” left out
# as §2, §3
# [17] = tested on: Amaranthus retroflexus; assay: Pre-emergence herbicidal action
# Text: as §1, §2, §3
# [18] = tested on: Abutilon theophrasti; assay: Pre-emergence herbicidal action; conditions: 320 g of a.i./ha, visual scoring 3-4 weeks after treatment
# Text: as §5, §2, §3
# [19] = 320 g of a.i./ha, visual scoring 3-4 weeks after treatment
compound,measurement,setting,value
CC[S+]([O-])c1c(S(C)(=O)=O)ccc(C(=O)c2c(C3CC3)nn(C)c2O)c1C (centres unmarked),Herbicidal activity in % against VIOTR,[1]; 80 g of a.i./ha,60%
CCOCCSc1c(S(C)(=O)=O)ccc(C(=O)c2c(C3CC3)nn(C)c2O)c1C,Herbicidal activity in % against POLCO,[2],70%
same,Herbicidal activity in % against PHBPU,[3],60%
same,pest or weed control at 80 g/ha,[4],80%
"CCSc1c(Cl)ccc(C(=O)c2c(C3CC3)nn(C)c2O)c1C [drawing 18, reference compound]",Herbicidal activity in % against VERPE,[5],30%
same,Herbicidal activity in % against STEME,[6],60%
same,pest or weed control at 80 g/ha,[7],30%
Cn1nc(C2CC2)c(C(=O)c2ccc(Cl)c(S(=O)(=O)CC3CC3)c2Cl)c1O [drawing 57],Herbicidal activity in % against GALAP,[8],70%
same,pest or weed control at 80 g/ha,[9],90%
same,pest or weed control at 80 g/ha,[10],90%
same,pest or weed control at 80 g/ha,[11],100%
same,pest or weed control at 80 g/ha,[12],50%
COCCS(=O)(=O)c1c(S(C)(=O)=O)ccc(C(=O)c2c(C3CC3)nn(C)c2O)c1C [drawing 13],Herbicidal activity in % against POLCO,[13],60%
same,Herbicidal activity in % against PHBPU,[14],60%
same,Herbicidal activity in % against XANST,[15],70%
COCC[S+]([O-])c1c(S(C)(=O)=O)ccc(C(=O)c2c(C3CC3)nn(C)c2O)c1C (centres unmarked) [drawing 33],Damage to TRZAS,[16],20
same,pest or weed control at 80 g/ha,[4],70%
same,pest or weed control at 80 g/ha,[9],100%
CSc1c(S(C)(=O)=O)ccc(C(=O)c2c(C3CC3)nn(C)c2O)c1Cl [drawing 26],Herbicidal activity in % against VIOTR,[1]; 320 g of a.i./ha,50%
same,Herbicidal activity in % against AMARE,[17]; [19],90%
same,Herbicidal activity in % against POLCO,[13],40%
same,Herbicidal activity in % against ABUTH,[18],60%
same,pest or weed control at 320 g/ha,[7],0%
"Cn1nc(C2CC2)c(C(=O)c2ccc(Cl)c(S(C)(=O)=O)c2Cl)c1O [drawing 58, reference compound]",Herbicidal activity in % against GALAP,[8],40%
same,pest or weed control at 80 g/ha,[9],60%
same,pest or weed control at 80 g/ha,[10],70%
same,pest or weed control at 80 g/ha,[11],80%
same,pest or weed control at 80 g/ha,[12],0%
Cc1c(C(=O)c2c(C3CC3)nn(C)c2O)ccc(S(C)(=O)=O)c1[S+](C)[O-] (centres unmarked) [reference compound],Damage to TRZAS,[16],50
same,pest or weed control at 80 g/ha,[4],60%
same,pest or weed control at 80 g/ha,[9],80%
COCC[S+]([O-])c1c(S(C)(=O)=O)ccc(C(=O)c2c(C3CC3)nn(C)c2O)c1C (centres unmarked) [drawing 11],Herbicidal activity in % against VIOTR,[1]; 80 g of a.i./ha,70%
"CSc1c(S(C)(=O)=O)ccc(C(=O)c2c(C3CC3)nn(C)c2O)c1C [drawing 32, reference compound]",Herbicidal activity in % against POLCO,[2],50%
same,Herbicidal activity in % against PHBPU,[3],40%
"CCS(=O)(=O)c1c(S(C)(=O)=O)ccc(C(=O)c2c(C3CC3)nn(C)c2O)c1C [drawing 14, reference compound]",Herbicidal activity in % against POLCO,[13],20%
same,Herbicidal activity in % against PHBPU,[14],20%
same,Herbicidal activity in % against XANST,[15],0%
Cc1c(C(=O)c2c(C3CC3)nn(C)c2O)ccc(Cl)c1SCC1CC1 [drawing 43],Herbicidal activity in % against VERPE,[5],70%
same,Herbicidal activity in % against STEME,[6],90%
same,Herbicidal activity in % against AMARE,[17]; 80 g of a.i./ha,80%
CSc1c(Cl)ccc(C(=O)c2c(C3CC3)nn(C)c2O)c1C [reference compound],Herbicidal activity in % against VERPE,[5],50%
same,Herbicidal activity in % against STEME,[6],80%
same,Herbicidal activity in % against AMARE,[17]; 80 g of a.i./ha,70%
CCSc1c(S(C)(=O)=O)ccc(C(=O)c2c(C3CC3)nn(C)c2O)c1Cl [drawing 24],Herbicidal activity in % against VIOTR,[1]; 320 g of a.i./ha,50%
same,Herbicidal activity in % against AMARE,[17]; [19],90%
same,Herbicidal activity in % against POLCO,[13],0%
same,Herbicidal activity in % against ABUTH,[18],70%
same,pest or weed control at 320 g/ha,[7],0%
Cc1c(C(=O)c2c(C3CC3)nn(C)c2O)ccc(S(C)(=O)=O)c1S(=O)(=O)CC1CC1 [drawing 15],Herbicidal activity in % against POLCO,[13],50%
same,Herbicidal activity in % against PHBPU,[14],50%
same,Herbicidal activity in % against XANST,[15],60%
COCCSc1c(Cl)ccc(C(=O)c2c(C3CC3)nn(C)c2O)c1C [drawing 17],Herbicidal activity in % against VERPE,[5],90%
same,Herbicidal activity in % against STEME,[6],90%
same,pest or weed control at 80 g/ha,[7],60%
COCCSc1c(S(C)(=O)=O)ccc(C(=O)c2c(C3CC3)nn(C)c2O)c1Cl [drawing 23],Herbicidal activity in % against VIOTR,[1]; 320 g of a.i./ha,100%
same,Herbicidal activity in % against AMARE,[17]; [19],100%
same,Herbicidal activity in % against POLCO,[13],50%
same,Herbicidal activity in % against ABUTH,[18],100%
same,pest or weed control at 320 g/ha,[7],60%
